The values that follow come from US20080286357A1, “MULTI-FUNCTIONAL PARTICULATE DELIVERY SYSTEM FOR PHARMACOLOGICALLY ACTIVE INGREDIENTS” (Balchem Corporation, priority 2007, published 2008).

The nature of this series: Flow and bulk density of powder blend. Type of series: physicochemical. Here is the method: The procedure is described in USP<616<Bulk Density and Tapped Density.
CabOSil with ubidecarenone is co-sieved through a 30-mesh. The ProSolv HD90 and multi-functional particulate system are added. The powder mix is blended at maximum speed for ten minutes. The powder mix is then sieved through a 40-mesh. Polyplasdone Crospovidone is added, and the mixture is blended at maximum speed for two minutes Finally, Mg-stearate is added, and the mixture is blended at maximum speed for two minutes.

As to `COC1=C(OC)C(=O)C(C/C=C(\C)CC/C=C(\C)CC/C=C(\C)CC/C=C(\C)CC/C=C(\C)CC/C=C(\C)CC/C=C(\C)CC/C=C(\C)CC/C=C(\C)CCC=C(C)C)=C(C)C1=O` [Ubidecarenone], the “flow (in words)” value is “does not flow”.
